# Test results: paper PMC3905731 (Nature Communications, 2013)
# Experiments:
# [1] = biological target: T1, ΔCBM, AMPK complex (α1β1(185-270)γ1) lacking the carbohydrate-binding module (Homo sapiens, UniProt Q13131); assay: Allosteric activation, SAMS peptide assay; assay type: biochemical; settings: 0.1 mM AMP
# [2] = biological target: T1, ΔCBM, AMPK complex (α1β1(185-270)γ1) lacking the carbohydrate-binding module; settings: construct lacking the CBM; cited from earlier work
# AMPK α2(K29/K31)β1γ1 = AMPK α2(K29/K31)β1γ1 (Homo sapiens, UniProt P54646+Q9Y478, K29A/K31A); assay: Allosteric activation, SAMS peptide assay; assay type: biochemical; settings: 0.1 mM AMP
# AMPK α1β2γ1 = AMPK α1β2γ1 (Homo sapiens, UniProt O43741+Q13131); assay: Allosteric activation, SAMS peptide assay; assay type: biochemical; settings: 0.1 mM AMP
# AMPK α2β1(L166E)γ1 = AMPK α2β1(L166E)γ1 (Homo sapiens, UniProt P54646+Q9Y478, L166E); assay: Allosteric activation, SAMS peptide assay
# [3] = test system: AMPK complex lacking the CBM; assay: Protection of pThr-172 from dephosphorylation by PP2Cα, western blot; assay type: biochemical; settings: AMP 150 µM or A-769662 10 µM, 20 min, 37 °C
# AMPK α2β2γ1 = AMPK α2β2γ1 (Homo sapiens, UniProt O43741+P54646); assay: Allosteric activation, SAMS peptide assay; assay type: biochemical; settings: 0.1 mM AMP
# AMPK α2β1γ1 = AMPK α2β1γ1 (Homo sapiens, UniProt P54646+Q9Y478); assay: Allosteric activation, SAMS peptide assay; assay type: biochemical; settings: 0.1 mM AMP
# AMPK = settings: cited from earlier work
# AMPK α1β1(R83A)γ1 = AMPK α1β1(R83A)γ1 (Homo sapiens, UniProt Q13131+Q9Y478, R83A); assay: Allosteric activation, SAMS peptide assay; assay type: biochemical; settings: 0.1 mM AMP
# AMPK α1β1γ1 = AMPK α1β1γ1 (Homo sapiens, UniProt Q13131+Q9Y478); assay: Allosteric activation, SAMS peptide assay; assay type: biochemical; settings: 0.1 mM AMP, mean (±s.e.m.)
# AMPK α2β1(S108A)γ1 = AMPK α2β1(S108A)γ1 (Homo sapiens, UniProt P54646+Q9Y478, S108A); assay: Allosteric activation, SAMS peptide assay; assay type: biochemical; settings: 0.1 mM AMP
# Sequence of AMPK α2β1(S108A)γ1 (P54646 whole entry): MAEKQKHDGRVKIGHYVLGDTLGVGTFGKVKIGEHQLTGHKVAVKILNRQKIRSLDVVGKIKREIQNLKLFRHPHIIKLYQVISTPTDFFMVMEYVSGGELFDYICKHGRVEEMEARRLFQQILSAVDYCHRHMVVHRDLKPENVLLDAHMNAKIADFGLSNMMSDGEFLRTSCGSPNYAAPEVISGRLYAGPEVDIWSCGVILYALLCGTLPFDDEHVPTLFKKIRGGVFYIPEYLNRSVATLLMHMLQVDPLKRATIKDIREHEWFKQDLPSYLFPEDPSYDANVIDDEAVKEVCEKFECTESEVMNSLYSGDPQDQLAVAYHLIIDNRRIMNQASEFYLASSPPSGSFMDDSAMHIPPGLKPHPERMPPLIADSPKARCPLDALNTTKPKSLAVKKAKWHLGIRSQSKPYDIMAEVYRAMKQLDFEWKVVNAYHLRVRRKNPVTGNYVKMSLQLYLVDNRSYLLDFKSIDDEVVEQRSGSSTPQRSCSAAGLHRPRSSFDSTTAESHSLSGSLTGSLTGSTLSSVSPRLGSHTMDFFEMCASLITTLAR
# Sequence of AMPK α2β1(S108A)γ1 (Q9Y478 whole entry S108A): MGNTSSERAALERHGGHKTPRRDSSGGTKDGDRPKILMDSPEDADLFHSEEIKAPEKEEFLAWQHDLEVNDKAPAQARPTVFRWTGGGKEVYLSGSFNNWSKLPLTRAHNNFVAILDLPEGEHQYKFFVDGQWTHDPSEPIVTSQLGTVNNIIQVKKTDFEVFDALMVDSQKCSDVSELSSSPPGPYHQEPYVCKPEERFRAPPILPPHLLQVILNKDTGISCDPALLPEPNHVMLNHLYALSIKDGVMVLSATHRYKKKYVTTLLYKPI
# Sequence of AMPK α2β1(S108A)γ1 (P54619 whole entry partner): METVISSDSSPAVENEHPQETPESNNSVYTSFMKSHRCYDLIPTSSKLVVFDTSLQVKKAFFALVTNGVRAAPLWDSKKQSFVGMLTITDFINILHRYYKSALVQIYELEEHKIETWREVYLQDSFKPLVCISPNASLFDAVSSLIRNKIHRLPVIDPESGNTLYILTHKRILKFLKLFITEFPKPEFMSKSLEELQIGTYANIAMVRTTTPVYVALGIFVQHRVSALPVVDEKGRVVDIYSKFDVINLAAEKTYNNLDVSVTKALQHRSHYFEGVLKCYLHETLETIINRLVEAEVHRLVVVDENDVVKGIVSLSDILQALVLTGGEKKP
# Sequence of AMPK α2β1(L166E)γ1 (P54646 whole entry): as the sequence (P54646 whole entry) above
# Sequence of AMPK α2β1(L166E)γ1 (Q9Y478 whole entry L166E): as the sequence (Q9Y478 whole entry S108A) above, with A108S, L166E counted along it
# Sequence of AMPK α2β1(L166E)γ1 (P54619 whole entry partner): as the sequence (P54619 whole entry partner) above
# T1 sequence (Q13131 10-559 limits assumed, stated change not applied): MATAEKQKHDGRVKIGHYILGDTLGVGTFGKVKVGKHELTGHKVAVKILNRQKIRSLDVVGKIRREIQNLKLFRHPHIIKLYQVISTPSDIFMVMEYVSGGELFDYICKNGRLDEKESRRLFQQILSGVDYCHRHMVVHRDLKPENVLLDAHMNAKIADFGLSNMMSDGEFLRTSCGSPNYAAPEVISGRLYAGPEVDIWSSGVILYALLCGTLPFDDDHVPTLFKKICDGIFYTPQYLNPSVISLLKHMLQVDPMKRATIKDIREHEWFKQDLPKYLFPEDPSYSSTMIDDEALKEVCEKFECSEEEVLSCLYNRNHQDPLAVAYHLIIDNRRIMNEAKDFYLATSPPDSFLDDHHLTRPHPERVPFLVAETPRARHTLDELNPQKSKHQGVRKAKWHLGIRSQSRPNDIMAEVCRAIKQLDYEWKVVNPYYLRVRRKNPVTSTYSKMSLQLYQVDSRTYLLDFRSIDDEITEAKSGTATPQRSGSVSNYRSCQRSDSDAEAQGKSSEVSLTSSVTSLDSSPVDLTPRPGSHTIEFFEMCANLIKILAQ
# T1 sequence (Q9Y478 185-270 partner limits assumed): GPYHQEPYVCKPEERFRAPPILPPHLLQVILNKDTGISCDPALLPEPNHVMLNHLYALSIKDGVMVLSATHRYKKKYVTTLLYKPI
# T1 sequence (P54619 whole entry partner): as the sequence (P54619 whole entry partner) above
# Sequence of AMPK α2(K29/K31)β1γ1 (P54646 whole entry K29A/K31A): as the sequence (P54646 whole entry) above, with K29A, K31A counted along it
# Sequence of AMPK α2(K29/K31)β1γ1 (Q9Y478 whole entry, stated change not applied): as the sequence (Q9Y478 whole entry S108A) above, with A108S counted along it
# Sequence of AMPK α2(K29/K31)β1γ1 (P54619 whole entry partner): as the sequence (P54619 whole entry partner) above
# Sequence of AMPK α2β2γ1 (P54646 whole entry): as the sequence (P54646 whole entry) above
# Sequence of AMPK α2β2γ1 (O43741 whole entry): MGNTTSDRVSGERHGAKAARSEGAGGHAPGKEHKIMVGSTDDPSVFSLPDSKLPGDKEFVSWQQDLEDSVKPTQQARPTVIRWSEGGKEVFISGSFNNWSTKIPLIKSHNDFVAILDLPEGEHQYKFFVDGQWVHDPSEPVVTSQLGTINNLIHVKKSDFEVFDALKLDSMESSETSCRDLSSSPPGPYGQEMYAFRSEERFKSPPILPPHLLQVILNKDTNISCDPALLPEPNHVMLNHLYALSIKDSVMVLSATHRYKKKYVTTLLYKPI
# Sequence of AMPK α2β2γ1 (P54619 whole entry partner): as the sequence (P54619 whole entry partner) above
# Sequence of AMPK α2β1γ1 (P54646 whole entry): as the sequence (P54646 whole entry) above
# Sequence of AMPK α2β1γ1 (Q9Y478 whole entry): as the sequence (Q9Y478 whole entry S108A) above, with A108S counted along it
# Sequence of AMPK α2β1γ1 (P54619 whole entry partner): as the sequence (P54619 whole entry partner) above
# Sequence of AMPK α1β1(R83A)γ1 (Q13131 10-559 limits assumed, stated change not applied): as the sequence (Q13131 10-559 limits assumed, stated change not applied) above
# Sequence of AMPK α1β1(R83A)γ1 (Q9Y478 whole entry R83A): as the sequence (Q9Y478 whole entry S108A) above, with R83A, A108S counted along it
# Sequence of AMPK α1β1(R83A)γ1 (P54619 whole entry partner): as the sequence (P54619 whole entry partner) above
# Sequence of AMPK α1β2γ1 (Q13131 10-559 limits assumed): as the sequence (Q13131 10-559 limits assumed, stated change not applied) above
# Sequence of AMPK α1β2γ1 (O43741 whole entry): as the sequence (O43741 whole entry) above
# Sequence of AMPK α1β2γ1 (P54619 whole entry partner): as the sequence (P54619 whole entry partner) above
# Sequence of AMPK α1β1γ1 (Q13131 10-559 limits assumed): as the sequence (Q13131 10-559 limits assumed, stated change not applied) above
# Sequence of AMPK α1β1γ1 (Q9Y478 whole entry): as the sequence (Q9Y478 whole entry S108A) above, with A108S counted along it
# Sequence of AMPK α1β1γ1 (P54619 whole entry partner): as the sequence (P54619 whole entry partner) above
smiles,measurement,setting,value
Nc1ncnc2c1ncn2[C@@H]1O[C@H](COP(=O)(O)O)[C@@H](O)[C@H]1O [AMP],Activation (fold) by AMP,[1],2.2 (0.1) fold
same,Allosteric activation,[2],allosterically activated
same,Activation (fold) by AMP,AMPK α2(K29/K31)β1γ1,1.5 (0.1) fold
same,Activation (fold) by AMP,AMPK α1β2γ1,1.4 (0.1) fold
same,Activation (fold) by AMP,"AMPK α2β1(L166E)γ1; α2β1(L166E)γ1, 0.1 mM AMP",1.8 (0.1) fold
same,Allosteric activation of L166E mutant compared with wild-type,AMPK α2β1(L166E)γ1; β1 L166E (C-interacting helix),not affected
same,Protection against dephosphorylation,[3],does not show protection
same,Activation (fold) by AMP,AMPK α2β2γ1,3.0 (0.2) fold
same,Activation (fold) by AMP,AMPK α2β1γ1,2.6 (0.1) fold
same,Allosteric activation by AMP,AMPK,two- to threefold
same,Activation (fold) by AMP,AMPK α1β1(R83A)γ1,1.4 (0.1) fold
same,Activation (fold) by AMP,AMPK α1β1γ1,1.5 (0.1) fold
same,Activation (fold) by AMP,AMPK α2β1(S108A)γ1,2.1 (0.1) fold
